In PubChem BioAssay (NCI):
Values joined by “and” are separate entries in the source; they are usually repeats but may differ in a detail not shown here. Equal entries are not always repeated.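 Test compounds were applied to cells in 96-well plates for 48 hours at 5 doses. The concentration for 50% growth inhibition is given as GI50. TGI denotes the concentration required for complete inhibition of growth.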

Tests used:
Assay in all cases: NCI tumour cell line growth inhibition, 48 h
[1] = test system: A498 renal
[2] = test system: ACHN renal
[3] = test system: CAKI-1 renal
[4] = test system: COLO 205 colon
[5] = test system: HS 578T breast
[6] = test system: LOX IMVI melanoma
[7] = test system: MOLT-4 leukemia
[8] = test system: SNB-19 CNS
[9] = test system: SR leukemia
[10] = test system: UACC-257 melanoma
[11] = test system: UACC-62 melanoma
[12] = test system: MDA-N

| Compound | TGI [1] | TGI [2] | TGI [3] | TGI [4] | TGI [5] | TGI [6] | TGI [7] | TGI [8] | TGI [9] | TGI [10] | TGI [11] | TGI [12] | GI50 [3] | GI50 [5] | GI50 [7] | GI50 [9] | GI50 [10] | GI50 [1] | GI50 [12] |
| --- | --- | --- | --- | --- | --- | --- | --- | --- | --- | --- | --- | --- | --- | --- | --- | --- | --- | --- | --- |
| C/C(C=O)=N\Nc1cc(C)c2ccccc2n1 | 28.9 µM | 29.9 µM | 30.7 µM | 33.2 µM | 46.2 µM | 29.4 µM | 36.8 µM | 52 µM | 4.17 µM | 36.6 µM | 28.2 µM |  |  |  |  |  |  |  |  |
| CCN(CC)CCCCC1CCN(CC(=O)N2c3ccccc3NC(=O)c3ccccc32)CC1 | > 100 µM |  | > 100 µM | > 100 µM |  |  | > 100 µM | > 100 µM | > 100 µM | > 100 µM | > 100 µM |  |  |  |  |  |  |  |  |
| CCc1cc(Cc2cc(CC)c(NC(=O)C3=CC(=O)CC(c4ccc(OC)cc4)O3)c(CC)c2Cl)c(Cl)c(CC)c1NC(=O)C1=CC(=O)CC(c2ccc(OC)cc2)O1 (configuration not stated) | 39.9 µM | 32.1 µM | 65.8 µM | 31.6 µM |  | 32.4 µM | > 100 µM | 42.7 µM | 59.2 µM | 36.8 µM | 63.2 µM |  |  |  |  |  |  |  |  |
| CN(C)c1ccc(C2CC(=O)CC(c3ccc(N(C)C)cc3)C23C(=O)NC(=O)NC3=O)cc1 (configuration not stated) |  | > 25 µM | > 25 µM | > 25 µM |  | > 25 µM | > 25 µM | > 25 µM | > 25 µM | > 25 µM | > 25 µM | > 25 µM |  |  |  |  |  |  |  |
| COc1ccc2c(c1)c(Cc1c(C)n(C)c3ccc(OC)cc13)c(C)n2C | > 100 µM | > 100 µM | > 100 µM | > 100 µM |  | > 100 µM | > 100 µM | > 100 µM | > 100 µM | > 100 µM | > 100 µM |  |  |  |  |  |  |  |  |
| O=C(O)Cc1cc(=O)oc2cc(O)c(Cl)cc12 | > 100 µM | > 100 µM | > 100 µM | > 100 µM |  | > 100 µM | > 100 µM | > 100 µM |  |  | > 100 µM |  |  |  |  |  |  |  |  |
| CC(=O)c1c2c(cc3c1CC1(Cc4cc5c(cc4C1)CCC5)C3)CCC2 | > 100 µM | > 100 µM | > 100 µM |  | > 100 µM | > 100 µM | > 100 µM | > 100 µM | > 100 µM | > 100 µM |  | > 100 µM |  |  |  |  |  |  |  |
| CC(=NNC(=S)Nc1ccccc1C)c1cccc(C(C)=NNC(=S)Nc2ccccc2C)n1 | > 100 µM | 59.8 µM | > 100 µM | > 100 µM |  | > 100 µM | > 100 µM | > 100 µM | 12 µM | > 100 µM | > 100 µM | > 100 µM |  |  |  |  |  |  |  |
| CC1CN=C(NCc2ccccc2)S1 (configuration not stated) | > 100 µM | > 100 µM |  |  | > 100 µM | > 100 µM | > 100 µM | > 100 µM | > 100 µM | > 100 µM | > 100 µM | > 100 µM |  |  |  |  |  |  |  |
| COc1cc(/C=C2\CCCC3=C2NC(N)=NC3c2cc(OC)c(OC)c(OC)c2)cc(OC)c1OC (configuration not stated) |  |  | 7.69 µM |  | 7.62 µM |  | 5.83 µM |  | 3.74 µM | 4.35 µM |  |  | 1.44 µM | 0.554 µM | 1.69 µM | 0.51 µM | 1.25 µM |  |  |
| Fc1ccc(C(OCCN2CCC3CCC(C2)N3CCCc2ccccc2)c2ccc(F)cc2)cc1 (configuration not stated) | 11.8 µM | 18.2 µM | 18.3 µM | 2.67 µM | 19.7 µM | 13.8 µM | 7.86 µM | 22.3 µM |  | 8.93 µM | 18.2 µM | 11.3 µM |  |  |  |  |  |  |  |
| CCCCCCCCCCCCCCCC(=O)NC1CCc2cc(O)c(O)c(O)c2-c2ccc(SC)c(=O)cc21 (configuration not stated) | 39.5 µM | 22.4 µM | 27.2 µM | 16.9 µM |  | 24.8 µM | > 71.8 µM | 23.4 µM | > 31 µM | 26.7 µM | 10.9 µM |  |  |  |  |  |  |  |  |
| COC(=O)/C=C/c1cc(OC)c2c(c1)C(C(=O)OC)C(c1ccc(OC)c(OC)c1)O2 (configuration not stated) | > 100 µM | > 100 µM | > 100 µM | > 100 µM and 17.6 µM |  | > 100 µM | > 100 µM | > 100 µM | > 100 µM | > 100 µM | > 100 µM | > 100 µM |  |  |  |  |  | 64.1 µM | 30.6 µM |
| c1ccc(C2=NN(c3ccccc3)C3(S2)SC(c2ccccc2)(c2ccccc2)c2ccccc23)cc1 (configuration not stated) | > 100 µM | > 100 µM | > 100 µM | > 100 µM |  | > 100 µM | > 100 µM | > 100 µM |  | > 100 µM | > 100 µM |  |  |  |  |  |  |  |  |
| COc1ccc(CCN2CCC(C#N)(c3ccc(OC)c(OC)c3)CC2)cc1OC |  | > 100 µM |  | > 100 µM |  | > 100 µM | > 100 µM | > 100 µM | > 100 µM | > 100 µM | > 100 µM |  |  |  |  |  |  |  |  |
| COc1ccc2c(OC)c3ccoc3nc2c1O | > 100 µM | > 100 µM | > 100 µM | > 100 µM |  |  | > 100 µM | > 100 µM |  | > 100 µM | > 100 µM |  |  |  |  |  |  |  |  |
| N#Cc1cnn2c1n[n+]([O-])c1ccc(Cl)cc12 | 46 µM | 10.5 µM | 2.53 µM | 31.7 µM | > 24.7 µM | 8.51 µM | 17.6 µM | 10.1 µM |  | 23 µM | 9.09 µM | 22.7 µM |  |  |  |  |  |  |  |
| CC(=O)OC1[C@H]2c3cc4c(cc3CN3CCC(C[C@@H]1OC(C)=O)C23)OCO4 (some centres not stated) |  | > 75 µM |  | > 75 µM |  | > 75 µM | > 75 µM | > 75 µM | > 75 µM | > 75 µM | > 75 µM |  |  |  |  |  |  |  |  |
| COc1cc(C2c3cccc4cccc(c34)C3CCC(=O)N32)cc(O)c1O (configuration not stated) | > 50 µM | > 50 µM |  | > 50 µM |  |  | 41.6 µM | > 50 µM | 29.5 µM | > 50 µM | > 50 µM | > 50 µM |  |  |  |  |  |  |  |
| COC(=O)c1c/c(=N\NC(=O)CC(=O)Nc2ccccc2Cl)c2ccccc2o1 |  | > 100 µM | > 100 µM | > 100 µM |  | > 100 µM | > 100 µM | > 100 µM | > 100 µM | > 100 µM | > 100 µM |  |  |  |  |  |  |  |  |
| Oc1cn(-c2ccc(Cl)cc2)nc1-c1nnc(Nc2ccccc2)o1 | 29.5 µM | 71.6 µM | > 100 µM | 51 µM | 51.2 µM |  |  | 50.5 µM |  | 43.5 µM | 30.6 µM |  |  |  |  |  |  |  |  |
